The values below come from US6506751B1, “Thiazolidinone compounds useful as chemokine inhibitors” (Millennium Pharmaceuticals, Inc., priority 1999, dated 2003).

One series addresses T1, CCR-5 receptor (Homo sapiens, UniProt P51681).
T1 construct: membranes prepared from CCR-5/L 1.2 cells; expressed in transfected cells; host or cells: L1.2 cells (CCR-5/L 1.2), membrane preparation
Nature of the series: 125I-gp120/sCD4/CCR-5 binding assay (CCR-5 receptor binding assay). As to conditions: for IC50: block of 125I-gp120 (HIV-1 JR-FL)/sCD4 binding to membranes from CCR-5/L 1.2 cells; for inhibition at 10 µM / % Inhib. @ 10 μM: 10 μM compound, 125I-gp120/sCD4 binding to membranes from CCR-5/L 1.2 cells; for inhibition at 10 µM: read-out: % Inhib. @ 10 μM. How it is done: The ^125I-gp120/sCD4/CCR-5 binding assay is carried out similarly as described in Wu et al., Nature, 1996;384:179-183. Briefly, the envelope gp120 protein derived from HIV-1 JR-FL (Trkola et al., Nature, 1996;384:184-186), a M-tropic strain, is iodinated using solid phase lactoperoxidase to a specific activity of 20 μCi/μg. For each binding reaction (in a final volume of 100 μL binding buffer [50 mM HEPES, pH 7.5, 1 mM CaCl2, 5 mM MgCl2, and 0.5% BSA]), 25 μL (2.5 μg) of membranes prepared from CCR-5/L 1.2 cells are mixed with 25 μL (3 nM) sCD4, followed by 25 μL (0.1 nM) radiolabeled gp120 in the presence or absence of 25 μL compound dissolved in DMSO (final concentration of DMSO 0.5%). The reactions are incubated at room temperature for 45 to 60 minutes and stopped by transferring the mixture to GFB filter plates, which are then washed 3 to 4 times with binding buffer containing 0.5 M NaCl. The plates are dried and MicroScint scintillation fluid is added before counting.

Molecules are shown by their SMILES.

T1 sequence (P51681 whole entry): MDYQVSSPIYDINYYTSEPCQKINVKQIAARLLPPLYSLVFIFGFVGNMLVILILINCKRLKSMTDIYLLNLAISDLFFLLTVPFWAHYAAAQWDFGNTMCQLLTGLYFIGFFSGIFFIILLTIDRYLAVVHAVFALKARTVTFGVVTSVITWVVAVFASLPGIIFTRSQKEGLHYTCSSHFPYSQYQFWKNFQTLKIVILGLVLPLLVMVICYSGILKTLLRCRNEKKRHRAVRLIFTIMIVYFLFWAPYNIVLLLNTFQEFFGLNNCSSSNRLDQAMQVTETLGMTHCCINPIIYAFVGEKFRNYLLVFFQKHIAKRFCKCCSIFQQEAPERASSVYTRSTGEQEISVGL

As for `O=C1/C(=C\c2cccc(F)c2)SC(c2cccc(F)c2)N1CCCN1CCOCC1` (stereo not shown) [Compound 1, 5-(3-Fluorobenzylidene)-2-(3-fluorophenyl)-3-(3-morpholin-4-ylpropyl)-thiazolidin-4-one], the melting point (commonly the temperature of the solid-liquid transition) fell in the range of 149 to 150 °C. Moreover, the half-maximal inhibitory concentration (IC50) (usually the midpoint of a concentration-inhibition curve) on CCR-5 receptor is 10.8 µM.
The matching figures for `O=C1/C(=C\c2cccc(Cl)c2)SC(c2cccc(Cl)c2)N1CCCN1CCCCC1` (stereo not shown) [Compound 2, 5-(3-Chlorobenzylidene)-2-(3-chlorophenyl)-3-(3-piperidin-1-yl-propyl)-thiazolidin-4-one]: 137 to 139 °C and 0.25 µM.
The like results for `O=C1/C(=C\c2cccc(F)c2)SC(c2cccc(F)c2)N1CCCN1CCC(N2CCCCC2)CC1` (stereo not shown) [Compound 6, 3-(3-[1,4′]Bipiperidinyl-1′-yl-propyl)-5-(3-fluorobenzylidene)-2-(3-fluorophenyl)-thiazolidin-4-one] were, in that order, 160 to 162 °C and 1.26 µM.
The like results for `O=C1/C(=C\C2CCCCC2)SC(c2cccc(Cl)c2)N1CCCN1CCCCC1` (stereo not shown) [Compound 14, 2-(3-Chlorophenyl)-5-cyclohexylmethylene-3-(3-piperidin-1-yl-propyl)-thiazolidin-4-one] were, in that order, 90 to 91 °C and 0.46 µM.
On to `CCN(CC)CCSCCCN1C(=O)/C(=C\c2cccc(F)c2)SC1c1cccc(Cl)c1` (stereo not shown) [Compound 15, 2-(3-Chlorophenyl)-3-[3-(2-diethylaminoethylsulfanyl)propyl]-5-(3-fluorobenzylidene)-thiazolidin-4-one], for which the melting point fell in the range of 41 to 43 °C. The compound further yielded a 50% inhibitory concentration (IC50) at CCR-5 receptor of 12.7 µM.
The like results for `O=C1CSC(c2cccc(Cl)c2)N1C1CCN(Cc2ccccc2)CC1` (stereo not shown) [Compound 16, 3-(1-Benzylpiperidin-4-yl)-2-(3-chlorophenyl)-thiazolidin-4-one] were, in that order, 140 to 141 °C and 3.81 µM.
The like results for `O=C1/C(=C\c2cccc(F)c2)SC(c2cccc(Cl)c2)N1C1CCN(Cc2ccccc2)CC1` (stereo not shown) [Compound 19, 3-(1-Benzylpiperidin-4-yl)-2-(3-chlorophenyl)-5-(3-fluorobenzylidene)-thiazolidin-4-one] were, in that order, 121 to 123 °C and 0.28 µM.
The matching figures for `O=C1/C(=C\c2ccco2)SC(c2cccc(Cl)c2)N1CCCN1CCCCC1` (stereo not shown) [Compound 20, 2-(3-Chlorophenyl)-5-(furan-2-ylmethylene)-3-(3-piperidin-1-yl-propyl)-thiazolidin-4-one]: 156 to 158 °C and 0.17 µM.
Regarding `O=C1/C(=C\c2cccc(F)c2)SC(c2cccc(Cl)c2)N1CCCN1CCOCC1` (stereo not shown) [Compound 23, 2-(3-Chlorophenyl)-5-(3-fluorobenzylidene)-3-(3-morpholin-4-yl-propyl)-thiazolidin-4-one], the melting point fell in the range of 142 to 143 °C. In addition, the IC50 at CCR-5 receptor was 1.99 µM.
On to `O=C1C(=Cc2ccccc2)SC(c2cccc(F)c2)N1CCCN1CCC(N2CCCCC2)CC1` (stereo not shown) [Compound 37, 5-Benzylidene-3-(3-[1,4′]bipiperidinyl-1′-yl-propyl)-2-(3-fluoro-phenyl)-thiazolidin-4-one], for which the inhibition at 10 µM on CCR-5 receptor worked out at 56.6%.
Same read-out and setting: the value for `O=C1C(=Cc2ccccc2)SC(c2cccc(F)c2)N1CCCN1CCN(C2CCCCC2)CC1` (stereo not shown) [Compound 38, 5-Benzylidene-3-[3-(4-cyclohexyl-piperazin-1-yl)-propyl]-2-(3-fluoro-phenyl)-thiazolidin-4-one] was 54.4%.
For the compound `O=C1C(=Cc2ccccc2)SC(c2cccc([N+](=O)[O-])c2)N1CCCN1CCN(c2ncccn2)CC1` (stereo not shown) [Compound 39], the “% Inhib. @ 10 μM” value at CCR-5 receptor is listed as 70.1%.
Turning to `O=C1C(=Cc2ccccc2)SC(c2cccc(Cl)c2)N1CCCN1CCN(c2ccccn2)CC1` (stereo not shown) [Compound 40, 5-Benzylidene-2-(3-chloro-phenyl)-3-[3-(4-pyridin-2-yl-piperazin-1-yl)-propyl]-thiazolidin-4-one], the inhibition at 10 µM on CCR-5 receptor was found to be 84.3%.
Still for that read-out and setting: the result for `O=C1C(=Cc2ccccc2)SC(c2cccc(Cl)c2)N1CCCN1CCC(N2CCCCC2)CC1` (stereo not shown) [Compound 41, 5-Benzylidene-3-(3-[1,4′]bipiperidinyl-1′-yl-propyl)-2-(3-chloro-phenyl)-thiazolidin-4-one] reads 62.4%.
The same measure, in the same setting: the value for `O=C1C(=Cc2ccccc2)SC(c2cccc(Cl)c2)N1CCCN1CCOCC1` (stereo not shown) [Compound 42, 5-Benzylidene-2-(3-chloro-phenyl)-3-(3-morpholin-4-yl-propyl)-thiazolidin-4-one] was 64.7%; that for `O=C1C(=Cc2ccccc2)SC(c2cccc(Cl)c2)N1CCCN1CCN(c2ncccn2)CC1` (stereo not shown) [Compound 43, 5-Benzylidene-2-(3-chloro-phenyl)-3-[3-(4-pyrimidin-2-yl-piperazin-1-yl)-propyl]-thiazolidin-4-one] was 95%.
The same measure, in the same setting: the result for `O=C1C(=Cc2ccccc2)SC(c2cccc(Cl)c2)N1CCCN1CCN(C2CCCCC2)CC1` (stereo not shown) [Compound 44, 5-Benzylidene-2-(3-chloro-phenyl)-3-[3-(4-cyclohexyl-piperazin-1-yl)-propyl]-thiazolidin-4-one] reads 54.5%.
On to `O=C1C(=Cc2cccc(Cl)c2)SC(c2cccc(C(F)(F)F)c2)N1CCCN1CCN(c2ncccn2)CC1` (stereo not shown) [Compound 45, 5-(3-Chloro-benzylidene)-3-[3-(4-pyrimidin-2-yl-piperazin-1-yl)-propyl]-2-(3-trifluoromethyl-phenyl)-thiazolidin-4-one], for which the inhibition at 10 µM at CCR-5 receptor stood at 57.7%.
Regarding `O=C1C(=Cc2cccc(Cl)c2)SC(c2cccc(C(F)(F)F)c2)N1CCCN1CCN(C2CCCCC2)CC1` (stereo not shown) [Compound 46, 5-(3-Chloro-benzylidene)-3-[3-(4-cyclohexyl-piperazin-1-yl)-propyl]-2-(3-rifluoromethyl-phenyl)-thiazolidin-4-one], the “% Inhib. @ 10 μM” value at CCR-5 receptor amounted to 51.1%.
Same read-out and setting: the result for `O=C1C(=Cc2cccc(Cl)c2)SC(c2cccc(F)c2)N1CCCN1CCN(c2ccccn2)CC1` (stereo not shown) [Compound 47, 5-(3-Chloro-benzylidene)-2-(3-fluoro-phenyl)-3-[3-(4-pyridin-2-yl-piperazin-1-yl)-propyl]-thiazolidin-4-ne] reads 75.6%.
Regarding `O=C1C(=Cc2cccc(Cl)c2)SC(c2cccc(F)c2)N1CCCN1CCN(c2ncccn2)CC1` (stereo not shown) [Compound 48, 5-(3-Chloro-benzylidene)-2-(3-fluoro-phenyl)-3-[3-(4-pyrimidin-2-yl-piperazin-1-yl)-propyl]-thiazolidin-4-one], the inhibition at 10 µM at CCR-5 receptor came out at 84.7%.
Take `O=C1C(=Cc2cccc(Cl)c2)SC(c2cccc(F)c2)N1CCCN1CCN(C2CCCCC2)CC1` (stereo not shown) [Compound 49, 5-(3-Chloro-henzylidene)-3-[3-(4-cyclohexyl-piperazin-1-yl)-propyl]-2-(3-fluoro-phenyl)-thiazolidin-4-one]: the “% Inhib. @ 10 μM” value at CCR-5 receptor is on record as 54.0%.
Consider `O=C1C(=Cc2cccc(Cl)c2)SC(c2cccc(Cl)c2)N1CCCN1CCN(c2ccccn2)CC1` (stereo not shown) [Compound 50, 5-(3-Chloro-benzylidene)-2-(3-chloro-phenyl)-3-[3-(4-pyridin-2-yl-piperazin-1-yl)-propyl]-thiazolidin-4-one], for which, on CCR-5 receptor, the inhibition at 10 µM was 77.8%.
Still for that read-out and setting: the value for `O=C1C(=Cc2cccc(Cl)c2)SC(c2cccc(Cl)c2)N1CCCN1CCN(c2ncccn2)CC1` (stereo not shown) [Compound 51, 5-(3-Chloro-benzylidene)-2-(3-chloro-phenyl)-3-[3-(4-pyrimidin-2-yl-piperazin-1-yl)-propyl]-thiazolidin-4-one] was 84%; that for `O=C1C(=Cc2cccc(Cl)c2)SC(c2cccc(Cl)c2)N1CCCN1CCN(C2CCCCC2)CC1` (stereo not shown) [Compound 52, 5-(3-Chloro-benzylidene)-2-(3-chloro-phenyl)-3-[3-(4-cyclohexyl-piperazin-1-yl)-propyl]-thiazolidin-4-one] was 43.7%.
